# Laboratory results reported in patent US20260125370A1, “SULFOXIMINE COMPOUNDS AS HISTONE DEACETYLASE 6 INHIBITOR, AND PHARMACEUTICAL COMPOSITION COMPRISING THE SAME” (CHONG KUN DANG PHARMACEUTICAL CORP., priority 2022, published 2026).
# pIC50: −log10 of the molar value.
# Legend:
# human recombinant HDAC1 = molecular target: T1, human recombinant HDAC1 (Homo sapiens, UniProt Q13547); test: HDAC1 enzyme activity inhibition (HDAC1 Fluorimetric Drug Discovery Assay Kit, in vitro); type: biochemical; conditions: samples at 100, 1000 and 10000 nM
# T1 construct: purchased Enzolifesciences BML-SE456
# Summary of the method: (§1)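 Recombinant human HDAC1 or HDAC6 (0.3 μg) with Fluor de Lys-SIRT1 substrate at […], 60 min at 37 °C, then developer 30 min; fluorescence Ex 360/Em 460. Compounds at 100–10000 nM for HDAC1 and 0.1–1000 nM for HDAC6; IC50 calculated.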
# human recombinant HDAC6 = molecular target: T2, human recombinant HDAC6 (Homo sapiens, UniProt Q9UBN7); test: HDAC6 enzyme activity inhibition (fluorimetric, in vitro); type: biochemical; conditions: samples at 0.1, 1, 10, 100 and 1000 nM
# T2 construct: purchased Calbiochem 382180
# T2 sequence (Q9UBN7 1-1215): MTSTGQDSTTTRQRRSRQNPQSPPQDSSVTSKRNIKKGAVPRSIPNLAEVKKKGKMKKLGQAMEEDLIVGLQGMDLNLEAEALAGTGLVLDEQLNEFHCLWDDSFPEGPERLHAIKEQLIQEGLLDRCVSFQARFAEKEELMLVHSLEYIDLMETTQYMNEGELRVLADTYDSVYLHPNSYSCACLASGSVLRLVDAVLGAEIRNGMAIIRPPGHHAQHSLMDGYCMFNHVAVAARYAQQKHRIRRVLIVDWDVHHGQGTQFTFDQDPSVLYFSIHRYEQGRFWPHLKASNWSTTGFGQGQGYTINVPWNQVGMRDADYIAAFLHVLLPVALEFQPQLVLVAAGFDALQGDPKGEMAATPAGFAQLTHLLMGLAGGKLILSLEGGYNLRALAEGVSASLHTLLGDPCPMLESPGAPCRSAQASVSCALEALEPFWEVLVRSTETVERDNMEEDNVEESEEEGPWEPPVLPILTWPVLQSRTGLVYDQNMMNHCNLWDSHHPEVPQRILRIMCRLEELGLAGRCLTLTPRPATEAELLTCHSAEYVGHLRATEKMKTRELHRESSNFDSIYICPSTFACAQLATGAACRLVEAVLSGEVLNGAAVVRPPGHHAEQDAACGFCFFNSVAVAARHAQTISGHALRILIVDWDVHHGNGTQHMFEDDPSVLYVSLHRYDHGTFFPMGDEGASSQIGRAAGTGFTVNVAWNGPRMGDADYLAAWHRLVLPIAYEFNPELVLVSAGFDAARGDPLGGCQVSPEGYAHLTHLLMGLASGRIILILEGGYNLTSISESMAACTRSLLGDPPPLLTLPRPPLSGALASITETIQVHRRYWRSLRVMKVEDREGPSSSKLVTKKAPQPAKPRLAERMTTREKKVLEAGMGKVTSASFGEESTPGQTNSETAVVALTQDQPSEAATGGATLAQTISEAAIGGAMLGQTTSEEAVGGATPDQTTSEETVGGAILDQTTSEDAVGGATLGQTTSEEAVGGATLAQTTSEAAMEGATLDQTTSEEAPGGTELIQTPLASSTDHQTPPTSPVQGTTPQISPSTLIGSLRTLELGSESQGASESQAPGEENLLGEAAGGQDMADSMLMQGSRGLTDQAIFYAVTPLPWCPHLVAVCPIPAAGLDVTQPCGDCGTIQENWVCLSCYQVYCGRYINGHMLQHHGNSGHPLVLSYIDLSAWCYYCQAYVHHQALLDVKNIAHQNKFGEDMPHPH
# Summary of the method: as §1
# T1 sequence (Q13547 whole entry): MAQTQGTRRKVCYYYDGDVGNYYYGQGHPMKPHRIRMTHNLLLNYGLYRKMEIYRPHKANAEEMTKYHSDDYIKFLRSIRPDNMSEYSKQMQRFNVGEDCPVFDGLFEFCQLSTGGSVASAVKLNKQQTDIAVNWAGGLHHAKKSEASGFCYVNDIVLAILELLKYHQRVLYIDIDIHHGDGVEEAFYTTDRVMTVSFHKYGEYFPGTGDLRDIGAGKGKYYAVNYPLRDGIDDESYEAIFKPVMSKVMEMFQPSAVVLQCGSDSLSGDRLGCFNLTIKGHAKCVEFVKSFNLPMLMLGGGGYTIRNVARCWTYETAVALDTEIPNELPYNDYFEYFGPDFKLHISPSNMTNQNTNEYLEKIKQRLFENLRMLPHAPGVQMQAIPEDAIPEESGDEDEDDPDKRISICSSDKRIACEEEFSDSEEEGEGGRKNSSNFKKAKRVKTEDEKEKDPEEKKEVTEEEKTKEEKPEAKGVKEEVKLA
SMILES,pIC50 (human recombinant HDAC1),pIC50 (human recombinant HDAC6)
"O=C(N=S1(=O)CCN(C(=O)N(Cc2ccc(-c3nnc(C(F)F)o3)nn2)c2cccc(F)c2)CC1)OCc1ccccc1 [Compound 79, Benzyl N-[4-[[6-[5-(difluoromethyl)-1,3,4-oxadiazol-2-yl]pyridazin-3-yl]methyl-(3-fluorophenyl)carbamoyl]-1-oxo-1,4-thiazinan-1-ylidene]carbamate]",< 5.00,7.06
"N=S1(=O)CCN(C(=O)N(Cc2ccc(-c3nnc(C(F)F)o3)nn2)c2cccc(F)c2)CC1 [Compound 80, N-[[6-[5-(difluoromethyl)-1,3,4-oxadiazol-2-yl]pyridazin-3-yl]methyl]-N-(3-fluorophenyl)-1-imino-1-oxo-1,4-thiazinan-4-carboxamide]",< 5.00,6.84
"N=S1(=O)CCN(C(=O)N(Cc2cnc(-c3nnc(C(F)F)o3)cn2)c2cccc(F)c2)CC1 [Compound 81, N-[[5-[5-(difluoromethyl)-1,3,4-oxadiazol-2-yl]pyrazin-2-yl]methyl]-N-(3-fluorophenyl)-1-imino-1-oxo-1,4-thiazinan-4-carboxamide]",< 5.00,6.62
"CC1CN(C(=O)N(Cc2ccc(-c3nnc(C(F)F)o3)cc2F)c2ccccc2)CCS1(=N)=O (stereo not shown) [Compound 82, N-[[4-[5-(difluoromethyl)-1,3,4-oxadiazol-2-yl]-2-fluoro-phenyl]methyl]-1-imino-2-methyl-1-oxo-N-phenyl-1,4-thiazinan-4-carboxamide]",< 5.00,7.03
"N=S1(=O)CC(N2CC3(CN(C(=O)N(Cc4ccc(-c5nnc(C(F)F)o5)cc4F)c4ccccc4)C3)C2)C1 (stereo not shown) [Compound 83, N-[[4-[5-(difluoromethyl)-1,3,4-oxadiazol-2-yl]-2-fluoro-phenyl]methyl]-6-(1-imino-1-oxo-thiethan-3-yl)-N-phenyl-2,6-diazaspiro[3.3]heptan-2-carboxamide]",< 5.00,7.15

# Other lines, results leading:
pIC50 (human recombinant HDAC1),pIC50 (human recombinant HDAC6),SMILES
< 5.00,7.14,"COc1cccc(N(Cc2ccc(-c3nnc(C(F)F)o3)cc2F)S(=O)(=O)N2CCS(=N)(=O)CC2)c1 [Compound 73, N-[[4-[5-(difluoromethyl)-1,3,4-oxadiazol-2-yl]-2-fluoro-phenyl]methyl]-1-imino-N-(3-methoxyphenyl)-1-oxo-1,4-thiazinan-4-sulfonamide]"
< 5.00,7.20,"N=S1(=O)CCN(CCS(=O)(=O)N(Cc2ccc(-c3nnc(C(F)F)o3)cc2F)c2ccccc2)CC1 [Compound 74, N-[[4-[5-(difluoromethyl)-1,3,4-oxadiazol-2-yl]-2-fluoro-phenyl]methyl]-2-(1-imino-1-oxo-1,4-thiazinan-4-yl)-N-phenyl-ethanesulfonamide]"
< 5.00,7.02,"CS(=N)(=O)C1CCN(C(=O)N(Cc2ccc(-c3nnc(C(F)F)o3)cc2F)c2ccccc2)CC1 (stereo not shown) [Compound 75, N-[[4-[5-(difluoromethyl)-1,3,4-oxadiazol-2-yl]-2-fluoro-phenyl]methyl]-4-(methylsulfonimidoyl)-N-phenyl-piperidin-1-carboxamide]"
< 5.00,7.40,"N=S1(=O)CCN(S(=O)(=O)N(Cc2ccc(-c3nnc(C(F)F)o3)cn2)c2ccc(F)cc2)CC1 [Compound 76, N-[[5-[5-(difluoromethyl)-1,3,4-oxadiazol-2-yl]-2-pyridyl]methyl]-N-(4-fluorophenyl)-1-imino-1-oxo-1,4-thiazinan-4-sulfonamide]"
< 5.00,7.29,"N=S1(=O)CCN(S(=O)(=O)N(Cc2ncc(-c3nnc(C(F)F)o3)cc2F)c2ccc(F)cc2)CC1 [Compound 77, N-[[5-[5-(difluoromethyl)-1,3,4-oxadiazol-2-yl]-3-fluoro-2-pyridyl]methyl]-N-(4-fluorophenyl)-1-imino-1-oxo-1,4-thiazinan-4-sulfonamide]"
< 5.00,7.10,"N=S1(=O)CCN(S(=O)(=O)N(Cc2ccc(-c3nnc(C(F)F)o3)cc2F)c2ccc(F)cc2)CC1 [Compound 78, N-[[4-[5-(difluoromethyl)-1,3,4-oxadiazol-2-yl]-2-fluoro-phenyl]methyl]-N-(4-fluorophenyl)-1-imino-1-oxo-1,4-thiazinan-4-sulfonamide]"
